Here are results for 17 compounds from ChEMBL document CHEMBL3407465, “Interaction of human organic anion transporter polypeptides 1B1 and 1B3 with antineoplastic compounds” (Eur J Med Chem, 2015).

In data set [1] the target is T1, Solute carrier organic anion transporter family member 1B1 (Homo sapiens, UniProt Q9Y6L6).
T1 sequence (Q9Y6L6 whole entry): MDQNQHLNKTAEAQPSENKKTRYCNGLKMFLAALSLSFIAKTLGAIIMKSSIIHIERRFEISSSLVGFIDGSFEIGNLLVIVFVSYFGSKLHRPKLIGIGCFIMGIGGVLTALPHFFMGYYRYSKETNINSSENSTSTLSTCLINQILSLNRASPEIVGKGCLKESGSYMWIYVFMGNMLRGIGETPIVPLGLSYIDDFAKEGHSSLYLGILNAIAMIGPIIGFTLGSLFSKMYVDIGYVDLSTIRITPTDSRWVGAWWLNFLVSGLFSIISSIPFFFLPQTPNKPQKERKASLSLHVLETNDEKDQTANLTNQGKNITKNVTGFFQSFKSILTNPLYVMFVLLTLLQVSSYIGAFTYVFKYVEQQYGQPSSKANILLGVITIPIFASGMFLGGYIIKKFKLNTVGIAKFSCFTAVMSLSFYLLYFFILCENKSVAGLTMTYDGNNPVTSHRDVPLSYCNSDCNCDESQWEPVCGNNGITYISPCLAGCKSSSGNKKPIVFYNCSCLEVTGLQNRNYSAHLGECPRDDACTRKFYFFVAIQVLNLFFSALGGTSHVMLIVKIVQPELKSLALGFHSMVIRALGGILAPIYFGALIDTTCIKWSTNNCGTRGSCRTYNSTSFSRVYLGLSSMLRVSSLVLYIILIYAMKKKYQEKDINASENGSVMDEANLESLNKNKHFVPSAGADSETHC
Nature of the data set: Inhibition of human OATP1B1-mediated [3H]estrone 3-sulfate at 100 uM after 5 mins relative to control. The data set is classed as ADME.

Data set [2] concerns the target T1, Solute carrier organic anion transporter family member 1B1. In words: Inhibition of human OATP1B1-mediated [3H]estrone 3-sulfate at after 5 mins by Dixon plot method. Type of data set: ADME.
The target of data set [3] is T2, Solute carrier organic anion transporter family member 1B3 (Homo sapiens, UniProt Q9NPD5).
T2 sequence (Q9NPD5 whole entry): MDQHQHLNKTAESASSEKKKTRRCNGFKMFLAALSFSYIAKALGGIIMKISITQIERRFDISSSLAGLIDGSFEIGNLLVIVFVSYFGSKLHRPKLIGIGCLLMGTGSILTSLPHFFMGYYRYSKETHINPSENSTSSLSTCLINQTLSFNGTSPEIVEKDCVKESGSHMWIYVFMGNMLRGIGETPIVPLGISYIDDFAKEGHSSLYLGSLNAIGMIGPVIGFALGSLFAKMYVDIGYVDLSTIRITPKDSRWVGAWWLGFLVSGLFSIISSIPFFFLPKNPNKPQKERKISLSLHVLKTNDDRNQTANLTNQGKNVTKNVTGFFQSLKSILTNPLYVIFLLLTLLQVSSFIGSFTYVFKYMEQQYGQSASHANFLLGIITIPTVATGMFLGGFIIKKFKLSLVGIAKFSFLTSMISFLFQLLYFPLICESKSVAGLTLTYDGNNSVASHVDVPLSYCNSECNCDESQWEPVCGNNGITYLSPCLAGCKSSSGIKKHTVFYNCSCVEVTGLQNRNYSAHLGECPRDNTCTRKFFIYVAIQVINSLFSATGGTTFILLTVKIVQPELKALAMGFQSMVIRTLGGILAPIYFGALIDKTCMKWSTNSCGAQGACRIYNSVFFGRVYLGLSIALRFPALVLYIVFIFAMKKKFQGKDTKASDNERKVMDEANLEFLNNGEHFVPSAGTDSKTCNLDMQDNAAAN
Nature of the data set: Inhibition of human OATP1B3-mediated [3H]CCK-8 at 100 uM after 5 mins relative to control. Type of data set: ADME.

Data set [4] addresses T2, Solute carrier organic anion transporter family member 1B3. In words: Inhibition of human OATP1B3-mediated [3H]CCK-8 after 5 mins by Dixon plot method. The data set is classed as ADME.
Data set [5] shares this target. In words: Stimulation of human OATP1B3-mediated [3H]CCK-8 at 100 uM after 5 mins relative to control. Type of data set: ADME.
Data set [6] concerns the target T1, Solute carrier organic anion transporter family member 1B1. Nature of the data set: Stimulation of human OATP1B1-mediated [3H]estrone 3-sulfate at 100 uM after 5 mins relative to control. The data set is classed as ADME.
The next data set has as its target T3, OATP1B3 (Homo sapiens, UniProt Q9NPD5).
T3 sequence (Q9NPD5 whole entry): T2 sequence (Q9NPD5 whole entry)
Nature of the data set: Inhibition of OATP1B3 (unknown origin)-mediated sodium fluorescein expressed in CHO cells at 10 uM. Type of data set: ADME, cell-based. Conditions: CHO cells expressing OATP1B3, probe sodium fluorescein.

For orientation: IC50 means the concentration needed to halve the response being measured. What is called Ki is a measure of affinity in units of concentration, obtained from inhibition or displacement. A lower Ki goes with higher affinity. For the compound `CC[C@]1(O)C[C@@H]2CN(CCc3c([nH]c4ccccc34)[C@@](C(=O)OC)(c3cc4c(cc3OC)N(C)[C@H]3[C@@](O)(C(=O)OC)[C@H](OC(C)=O)[C@]5(CC)C=CCN6CC[C@]43[C@@H]65)C2)C1` [VINBLASTINE], the “inhibition (INH)” value in data set [1] came to 64.1%; in data set [3], 81.5%. For the same compound, the IC50 in data set [2] is 46.8 µM; in data set [4] it was 43.5 µM. For the same compound, the Ki in data set [2] was found to be 10.2 µM; in data set [4], 18.6 µM.

Regarding `Nc1ccn([C@@H]2O[C@H](CO)[C@@H](O)C2(F)F)c(=O)n1` [GEMCITABINE], in data set [5], the Activity is listed as 11.1%.

For the compound `Nc1nc(Cl)nc2c1ncn2[C@H]1C[C@H](O)[C@@H](CO)O1` [CLADRIBINE], the Activity in data set [6] stood at 15.9%; in data set [5], 10%.

Regarding `O=C1c2c(O)ccc(O)c2C(=O)c2c(NCCNCCO)ccc(NCCNCCO)c21` [MITOXANTRONE], the “inhibition (INH)” value is listed as 18.9% in data set [1] and 84.4% in data set [3]. The compound also registered a 50% inhibitory concentration (IC50) in data set [4] of 3.39 µM. In addition, the inhibition constant Ki in data set [4] is 3.1 µM.

On to `CC[C@]1(O)C[C@H]2CN(CCc3c([nH]c4ccccc34)[C@@](C(=O)OC)(c3cc4c(cc3OC)N(C=O)[C@H]3[C@@](O)(C(=O)OC)[C@H](OC(C)=O)[C@]5(CC)C=CCN6CC[C@]43[C@@H]65)C2)C1` [VINCRISTINE], for which the “inhibition (INH)” value in data set [1] is listed as 28.1%. In data set [3], the “inhibition (INH)” value came to 65.1%. In data set [4], this compound had an IC50 of 36.8 µM and an inhibition constant Ki of 17.6 µM.

In the case of `O=P1(N(CCCl)CCCl)NCCCO1` (centres undefined) [CYCLOPHOSPHAMIDE ANHYDROUS], the Activity in data set [6] amounted to 5.6%; in data set [5], 8.7%.

On to `C[C@]12C=CC(=O)C=C1CC[C@@H]1[C@@H]2C(=O)C[C@@]2(C)[C@H]1CC[C@]2(O)C(=O)CO` [PREDNISONE], for which the “inhibition (INH)” value is listed as 9.8% in data set [1] and 12.5% in data set [3].

In turn, `O=P1(NCCCl)OCCCN1CCCl` (centres undefined) [IFOSFAMIDE] returned an Activity in data set [6] of 7.4%.

Regarding `Cn1c(CCCC(=O)O)nc2cc(N(CCCl)CCCl)ccc21` [BENDAMUSTINE], in data set [3], the “inhibition (INH)” value came out at 48.8%.

The inhibition is the drop in the measured response relative to a control, in per cent. High values mean a response far below the control, low ones a response near the control. `CC(=O)O[C@H]1C(=O)[C@@]2(C)[C@H]([C@H](OC(=O)c3ccccc3)[C@]3(O)C[C@H](OC(=O)[C@H](O)[C@@H](NC(=O)c4ccccc4)c4ccccc4)C(C)=C1C3(C)C)[C@]1(OC(C)=O)CO[C@@H]1C[C@@H]2O` [PACLITAXEL]: the “inhibition (INH)” value in data set [3] is 94.4%. Moreover, in data set [4], the half-maximal inhibitory concentration (IC50) was 0.26 µM and the affinity, expressed as Ki, was 1.8 µM. The compound further yielded an inhibition at 10 µM against OATP1B3 of 52.9%.

As for `O=C(O)CCCc1ccc(N(CCCl)CCCl)cc1` [CHLORAMBUCIL], in data set [6], the Activity is listed as 18.8%. Further, the “inhibition (INH)” value in data set [3] amounted to 66%. Besides, in data set [4], it took 80.7 µM to reach half-maximal inhibition (IC50) and the Ki was 37.4 µM.

With `Nc1ccn([C@@H]2O[C@H](CO)[C@@H](O)[C@@H]2O)c(=O)n1` [CYTARABINE], the Activity in data set [5] is reported as 17.7%.

With `Nc1nc(F)nc2c1ncn2[C@@H]1O[C@H](CO)[C@@H](O)[C@@H]1O` [FLUDARABINE], the Activity in data set [5] is 12%.

As for `COc1cccc2c1C(=O)c1c(O)c3c(c(O)c1C2=O)C[C@@](O)(C(=O)CO)C[C@@H]3O[C@H]1C[C@H](N)[C@H](O)[C@H](C)O1` [DOXORUBICIN], the “inhibition (INH)” value worked out at 12% in data set [1] and 53.6% in data set [3].

For `CCc1c2c(nc3ccc(OC(=O)N4CCC(N5CCCCC5)CC4)cc13)-c1cc3c(c(=O)n1C2)COC(=O)[C@]3(O)CC` [IRINOTECAN], the Activity in data set [6] was 93.3%. Moreover, in data set [3], the “inhibition (INH)” value is 34.3%.

Compound `CN(Cc1cnc2nc(N)nc(N)c2n1)c1ccc(C(=O)N[C@@H](CCC(=O)O)C(=O)O)cc1` [METHOTREXATE] displayed an Activity in data set [5] of 12%.

For the compound `S=P(N1CC1)(N1CC1)N1CC1` [THIOTEPA], the Activity in data set [6] was 11.9%.
